Results published in patent US6683230B1, “Hybrid seed production” (Syngenta Limited, priority 1998, dated 2004).
Read-outs that look alike come from different tables or passages of the source.

What was measured:
lac repressor = details: tobacco protoplasts and stable transformants; cited from earlier work
[1] = test system: safener induced GST-27 promoter; test: Reversal of sterility in GST-27-barstar maize WU25 by safener; format: in vivo
Excerpt: The corn transformation vector Zm/RMS14 (described above) carries a barstar gene fused to the safener induced GST-27 promoter. WU25 was shown by PCR to contain this gene fusion. […] There was no effect of the safener on the size or fertility of tassels on non-transgenic fertile plants. […] The resumption of microspore development appears to be linked to the barstar inhibition of barnase thus overcoming the ablation of tapetal cells. […] In contrast, the anthers from sterile plants were collapsed.
The same promoter fragment was fused to barnase to generate the corn transformation vector ZM/RMS14 (FIG. 30). This fusion also contained an out of frame barstar gene with a functional bacterial promoter to provide protection against barnase during the cloning steps. Transgenic maize plants were obtained and several progressed for further analysis. One plant WU25 in particular was studied in some detail by analysing progeny derived from crosses with pollen from a fully fertile plant. All progeny inheriting the transgene as assessed by PCR and leaf paint to detect the pat gene were completely sterile, whereas progeny lacking the transgene were fully fertile. […] In all other respects sterile plants were indistinguishable from their fertile non-transgenic siblings.

AlcA promoter [2] = details: 0.1% (v/v) ethanol in medium, 3 weeks
Protocol: (§1) Flower material was ground in 2-300 μl of extraction buffer (100 mM sodium phosphate buffer pH 7, 10 mM EDTA, 0.1% Triton X-100, 1% Sarcosyl, 10 mM b-mercaptoethanol). Samples were spun in a microcentrifuge for 15 min and 5 μl of the supernatant was used for Bradford protein assays with BSA as standard. 20 μl was diluted 1 in 5 with extraction buffer and 400 μl of assay buffer (same for extraction buffer except contains 1 mM 4-MUG and 20% methanol). 100 μl was taken (T0 sample) and added to 900 μl of stop buffer (0.2M sodium carbonate) and the rest was incubated at 37° C. for two hours before taking a further 100 μl (T2 samples) to be added to 900 μl stop buffer.
(§2) Florescence of samples was measured in a spectrophotometer and GUS was represented as nM 4M U per mg protein per hour.

AlcA promoter [3] = test system: AlcA promoter
Excerpt: 1) Oilseed rape (OSR) AlcA-GUS plants were root drenched with 250m1 of either water, 1% or 2% ethanol both on day 0 and day 1. Flower samples from these plants were then taken two days after the first induction.
The first two bars in each section represent uninduced anther and uninduced stigma/style GUS levels respectively. Each bar represents three replicates with each replicate containing anthers from three different flowers or stigma/styles from eight different flowers or ovaries from six different flowers.
2) Oilseed rape Aic-GUS flowers were subjected to GUS staining following induction with ethanol.
as §1, §2
(§3) For the GUS staining, the protocol of Blume and Grierson (1997) was used.

AlcA promoter [4] = details: after induction with ethanol
AlcA promoter [5] = test system: AlcA promoter; remark: listed apart in the source
Protocol: as §1, §2, §3

AlcA promoter [6] = details: ethanol vapour, 2-3 days
Protocol: Scutellum tissue is bombarded with pUIRN.AGS and the tissue exposed to ethanol vapour. […] Transgenic Alc-GUS plants obtained are grown to maturity and seed harvested, inducible GUS expression is determined on the progeny plants in the same way as described above for rice.
as §3

AlcA promoter [7] = test system: AlcA promoter; remark: listed apart in the source
AlcA promoter [8] = details: ethanol vapour, two days after induction
Excerpt: Alc-GUS tomoato flowers were induced using ethanol vapour as described above for tobacco flowers. Two days after induction, anthers and pollen were stained to detect GUS expression.
as §3

CC(C)S[C@@H]1O[C@H](CO)[C@H](O)[C@H](O)[C@H]1O [IPTG]
repression of GUS expression by lac repressor (lac repressor): repression can be relieved

CC1CN(C(=O)C(Cl)Cl)C(C)(C)O1 (centres unmarked) [R-29148]
microsporogenesis ([1]; extended treatment with safener): anthers filled with immature post-mitotic pollen
microspore development and tassel size ([1]; foliar application, field grown plants): A similar effect was seen
size or fertility of tassels ([1]; non-transgenic fertile plants): no effect
microspore development in anthers ([1]; root drench, glass house): microspore development was observed
reversal of sterility ([1]; root drench, glass house grown plants): Reversal of sterility was demonstrated
tassel size ([1]; treated vs untreated transgenic plants): increased tassel size relative to untreated plants

CCO [ethanol]
GUS levels in callus (AlcA promoter [2]): levels can be increased with the addition of ethanol
GUS levels, all tissues examined (AlcA promoter [3]; 2% ethanol root drench): increase in GUS from both uninduced levels and from the water-treated control plant
GUS staining of pistils (AlcA promoter [3]; 5% ethanol treated plant vs water-treated): induction of GUS in the female tissues
GUS staining of whole inflorescence (AlcA promoter [3]; cut flower stem in 5% ethanol, two days): Blue staining is apparent in the filaments, sepals, petals and the stigma/style regions of the flower
GUS staining of pistil sections (AlcA promoter [3]; root drench 2% ethanol, two days): induction of GUS throughout the pistil region
GUS levels in floral tissues (AlcA promoter [3]; root drench 250 ml 1% or 2% ethanol day 0 and day 1, sampled two days after first induction): increase in GUS levels in floral tissues
GUS staining of flower (AlcA promoter [3]; two days after root drench with 250 ml of 5% ethanol): reporter gene induction in the stigma/style region as well as the filaments
reporter gene (CAT) levels in floral tissues (AlcA promoter [4]): increase in reporter gene levels in floral tissues
GUS in anthers (AlcA promoter [5]; cut flower stems in 1%, 2% or 5% ethanol, two days): induced by ethanol in the anthers at levels above those seen in the water treated flowers
GUS staining of pistils (AlcA promoter [5]; root drench 250 ml 5% ethanol, two days): induction of GUS in the pistils
GUS in anthers (AlcA promoter [5]; vapour from 50 ml of 5% ethanol in sealed bag, 3 days): higher levels of GUS
GUS staining of bombarded scutellum tissue (AlcA promoter [6]): numerous blue spots are seen
concentration at which induction of GUS expression was observed (AlcA promoter [7]; AlcA promoter): 7 ng/100 ml air
toxicity to operators and environment (AlcA promoter [7]; in vivo): non-toxic to operators and to the environment
concentration at which the inducer is effective (AlcA promoter [7]; root drench, aqueous spray or gas): 1%
GUS staining of anthers and pollen (AlcA promoter [8]): blue staining was observed in both tissues
